These results are taken from BindingDB's records for patent US20250032625 (Merck Patent, 2025).

In this test the target is T1, Transcriptional enhancer factor TEF-1 [209-426] (UniProt P28347).
T1 construct: 209-426
Description: Surface Plasmon Resonance (SPR) Assay. The method, then:
The kinetic and affinity parameters of protein-exemplary compound interactions were evaluated by SPR. hsTEAD1 (209-426) was immobilized onto a CM7 (Series S) sensor chip via the standard amine coupling procedure, at 15° C. Prior to immobilization, the carboxymethylated surface of the chip was activated with 400 mM 1-ethyl-3-(3-dimethylaminopropyl)-carbodiimide and 100 mM N-hydroxysuccinimide for 10 min. hsTEAD1 (209-426) was diluted to 11 μg/mL in 10 mM Bis-Tris at pH 6.5 and immobilized on the activated surface chip for 8 and 10 min, in order to reach 6000 to 9000 response units (RU). The remaining activated carboxymethylated groups were blocked with a 7 min injection of 1 M ethanolamine pH 8.5 after which the surface chip was washed with 0.5% (w/v) sodium dodecyl sulphate and 50 mM glycine. HBS-N, which consists of 10 mM HEPES pH 7.4 and 150 mM NaCl, was used as the background buffer during immobilization. Exemplary compounds were prediluted in DMSO, diluted 1:50 in running buffer (20 mM Tris pH 7.4, 150 mM NaCl, 1 mM DTT, 5 mM MgCl2, 0.1 mM EGTA, 0.05% CHAPS) and injected at ten different concentrations using two-fold dilution series, from 100 μM to 0.2 μM. A DMSO solvent correction (1%-3%) was performed to account for variations in bulk signal and to achieve high-quality data. […]

T1 sequence (P28347 209-426): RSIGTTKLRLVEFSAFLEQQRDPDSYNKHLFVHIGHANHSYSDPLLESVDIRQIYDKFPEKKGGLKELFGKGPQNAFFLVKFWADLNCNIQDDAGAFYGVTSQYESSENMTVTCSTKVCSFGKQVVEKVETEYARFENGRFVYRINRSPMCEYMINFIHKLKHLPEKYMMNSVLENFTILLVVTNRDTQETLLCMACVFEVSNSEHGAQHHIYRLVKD

By Kd is commonly meant the free concentration of one partner at which half of the binding sites on the other are occupied at equilibrium, for simple one-to-one binding. On to `Cn1cc2c3cc(C(=O)NCCOCCOCCOCCOCCOc4cccc5c4C(=O)N(C4CCC(=O)NC4=O)C5=O)ccc3n(-c3ccc(C(F)(F)F)cc3)c2n1` (stereo unspecified) [US20250032625, Compound 16], for which the Kd stood at 3.01 µM.
